# Structures can show the parent of a compound that is named as a salt. Residues, ends and D or L forms follow the SMILES beside them. *: point of attachment. Cbz = O=C(OCc1ccccc1)*; CH2F = FC*
# How the values were obtained:
# [1] = water; hydrochloride salt; cited from earlier work
# [2] = system: cultured monkey corneal endothelial cells; test: p38 MAPK activation induces apoptosis: Western blot in cultured monkey corneal endothelial cells; format: cell-based; settings: Western blot after 9 hours
# Procedure: 1×10^5 cultured monkey corneal endothelial cells were seeded on a 12-well plate coated with an FNC Coating Mix and cultured for about 5 days until reaching confluence under the condition of 5% CO2 at 37° C. The medium used was Dulbecco's Modified Eagle Medium (Gibco, 12320-032), 10% FBS, 1% Penicillin-Streptomycin (nacalai tesque, 26252-94).
# As acclimation treatment, Z-VAD (OMe)-FMK (Wako Pure Chemical Industries, Ltd. 269-02071) was then added at a concentration of 10 μM and the cells were incubated for 16 hours under the condition of 5% CO2 at 37° C. For the Control group and anisomysin group, a solvent of a reagent Dimethyl Sulfoxide (DMSO) (Dimethyl Sulfoxide, Sterile-filtered; nacalai tesque, 13408-64) was added. The medium used was Gibco DMEM, 1% P/S. The cellular supernatant was then removed, and anisomysin (Wako Pure Chemical Industries Ltd., 017-16861) was added to the anisomysin group and the anisomysin+Z-VAD-FMK group at a concentration of 10 μM. 10 μM of Z-VAD was added with anisomysin to the anisomysin+Z-VAD-FMK group. DMSO was added to the groups to which Z-VAD-FMK was not added. The cells were then cultured for 9 hours. The cellular form was observed under a phase difference microscope. A picture was taken after 9 hours.
# After 9 hours, cell proteins were collected. The amount of protein expression was compared by Western blot. Anti-caspase 3 antibodies (cell signaling, 9662S), anti-p38 MAPK antibodies (cell signaling, #9212), and anti-pp38 MAPK antibodies (cell signaling, #4631S) were used as the antibodies. Further, anti-GAPDH antibodies (MBL, 3H12) were used as the internal standard.
compound,measurement,setting,value
"C[S+]([O-])c1ccc(-c2nc(-c3ccncc3)c(-c3ccc(F)cc3)[nH]2)cc1 (stereo not shown) [SB203580 hydrochloride, 4-(4-fluorophenyl)-2-(4-methylsulfinylphenyl)-5-(4-pyridyl)-1H-imidazole]",water solubility,[1],water-soluble
"COc1ccc(C[C@H]2NC[C@H](O)[C@@H]2OC(C)=O)cc1 [anisomysin, (2R,3R,4S)-2-[(4-methoxyphenyl)methyl]-3,4-pyrrolidinediol-3-acetate]",Phosphorylation of p38,[2]; 10 μM,observed
same,activation due to cleavage of caspase 3,[2]; 10 μM,observed
COC(=O)C[C@H](NC(=O)[C@H](C)NC(=O)[C@@H](NC(=O)OCc1ccccc1)C(C)C)C(=O)CF [Z-VAD-FMK] (Cbz-Val-Ala-Asp(OMe)-CH2F),Caspase 3 activation induced by anisomycin,[2]; 10 μM Z-VAD-FMK with 10 μM anisomycin,suppressed

# Reference: patent publication US10813920B2, “Drug for treating corneal endothelium by promoting cell proliferation or inhibiting cell damage” (THE DOSHISHA, priority 2013, dated 2020)
